Data taken from patent US20030113901A1, “Cell production” (priority 2000, published 2003).

Legend:
[1] = test system: in vitro-derived neurectoderm (EBM7); assay: Immunohistochemistry, TH: dopaminergic neuron formation from in vitro-derived neurectoderm (EBM7); format: cell-based; conditions: EBM7s, 10 ng/ml NGF days 7-10, 200 μM dopamine days 10-14 where present, day 14
Protocol: FIG. 2: The culture of in vitro-derived neurectoderm in the presence of NGF and dopamine increases dopaminergic neuron formation. EBM^7s were seeded for 3 days in 50% DMEM/F12, 10 ng/ml FGF2, 0.1% ITSS, 1% FCS, and 10 ng/ml NGF, and for an additional 4 days in DMEM/F12, 0.1% ITSS, 200 μM ascorbic acid, with or without 200 μM dopamine. The resulting EBMs were analysed by immunohistochemistry using an anti-TH antibody. Positive staining for TH (dark regions) indicated dopaminergic neurons. A, EBM^7s cultured in the absence of NGF and dopamine; B, EBM^7s cultured in the presence of NGF; C, EBM^7s cultured in the presence of NGF and dopamine.
(§1) EBs were grown in the presence of the conditioned medium MEDII for 7 days (EBM^7) as previously described in International Patent Application PCT/AU99/00265 to applicants, the entire disclosure of which is incorporated herein by reference.
(§2) ES cells were seeded at a density of 1×10^5 cells/cm^2 In suspension culture in bacterial petri dishes in DMEM containing 50% MEDII. DMEM is defined as Dulbecco's Modified Eagles Medium (Gibco BRL), pH 7.4, containing high glucose and supplemented with 10% foetal calf serum (FCS; Commonwealth Serum Laboratories), 40 μg/ml gentamycin, 1 mM L-glutamine, 0.1 mM β-mercaptoethanol (β-ME). […]
(§3) Antibody staining for NF200 and tyrosine hydroxylase (TH) was detected by alkaline phoaphatase activity. […]

[2] = test system: in vitro-derived neurectoderm (EBM7); assay: Immunohistochemistry, NF200: neuron formation from in vitro-derived neurectoderm (EBM7); format: cell-based; conditions: EBM7s grown in the presence of 10 ng/ml NGF vs absence; anti-NF200 antibody, day 14
Protocol: FIG. 1: The culture of in vitro-derived neurectoderm in the presence of NGF increases neuron formation. EBM^7s were seeded for 3 days in 50% DMEM/F12, 10 ng/ml FGF2, 0.1% ITSS, 1% FCS, in the presence or absence of 10 ng/ml NGF, and for an additional 4 days in 50% DMEM/F12, 0.1% ITSS. The resulting EBMs were analysed by immunohistochemistry using an anti-NF200 antibody. Positive staining for NF200 (dark regions) indicated neurons. A, EBM^7s cultured in the absence of NGF; B, EBM^7s cultured in the presence of NGF.
as §1
as §2, with “(β-ME). The resulting cell aggregates (EBMs) were split 1:2 after 2 days and seeded into fresh DMEM containing 50% MEDII.” for “(β-ME).”
as §3

Compound | TH positive cells (anti-TH antibody staining) [1] | proportion of cells staining positive for NF200 [2]
NCCc1ccc(O)c(O)c1 [dopamine, reference compound] | significant increase | 
NGF: growth factor from the neural growth factor (NGF) family, used at 10 ng/ml | only a small proportion | significantly increased
